ChEMBL document CHEMBL1147594, “Evaluation of loxoprofen and its alcohol metabolites for potency and selectivity of inhibition of cyclooxygenase-2” (Bioorg Med Chem Lett, 2004)

Key:
[1] = target: T1, Prostaglandin G/H synthase 2 (Homo sapiens, UniProt P35354)
T1 sequence (P35354 whole entry): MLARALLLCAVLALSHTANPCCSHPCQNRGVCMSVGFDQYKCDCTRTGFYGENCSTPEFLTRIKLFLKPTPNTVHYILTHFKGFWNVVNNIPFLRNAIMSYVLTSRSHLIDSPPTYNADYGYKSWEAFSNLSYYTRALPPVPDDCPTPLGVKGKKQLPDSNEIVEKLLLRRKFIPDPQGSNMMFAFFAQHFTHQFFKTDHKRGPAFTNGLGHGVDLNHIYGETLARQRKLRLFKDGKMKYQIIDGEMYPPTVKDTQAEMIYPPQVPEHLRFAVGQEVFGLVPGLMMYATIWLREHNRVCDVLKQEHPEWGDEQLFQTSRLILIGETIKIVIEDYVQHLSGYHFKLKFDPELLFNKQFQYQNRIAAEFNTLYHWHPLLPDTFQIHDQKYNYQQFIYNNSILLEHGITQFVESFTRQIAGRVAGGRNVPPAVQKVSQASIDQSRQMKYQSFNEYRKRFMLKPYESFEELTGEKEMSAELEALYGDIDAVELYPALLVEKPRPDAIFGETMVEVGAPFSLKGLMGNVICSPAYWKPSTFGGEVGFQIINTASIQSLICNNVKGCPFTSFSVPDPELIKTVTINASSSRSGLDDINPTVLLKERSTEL
Description: Inhibitory activity against recombinant human Prostaglandin G/H synthase 2

[2] = target: T1, Prostaglandin G/H synthase 2; remark: listed apart in the source
Description: Inhibitory potency against cyclooxygenase-2 in human whole blood assay

[3] = target: T2, Prostaglandin G/H synthase 1 (Homo sapiens, UniProt P23219)
Description: Inhibitory potency against Prostaglandin G/H synthase 1 in human whole blood assay

[4] = target: T2, Prostaglandin G/H synthase 1; assay: Inhibitory activity against recombinant human prostaglandin G/H synthase 1

T2 sequence (P23219 whole entry): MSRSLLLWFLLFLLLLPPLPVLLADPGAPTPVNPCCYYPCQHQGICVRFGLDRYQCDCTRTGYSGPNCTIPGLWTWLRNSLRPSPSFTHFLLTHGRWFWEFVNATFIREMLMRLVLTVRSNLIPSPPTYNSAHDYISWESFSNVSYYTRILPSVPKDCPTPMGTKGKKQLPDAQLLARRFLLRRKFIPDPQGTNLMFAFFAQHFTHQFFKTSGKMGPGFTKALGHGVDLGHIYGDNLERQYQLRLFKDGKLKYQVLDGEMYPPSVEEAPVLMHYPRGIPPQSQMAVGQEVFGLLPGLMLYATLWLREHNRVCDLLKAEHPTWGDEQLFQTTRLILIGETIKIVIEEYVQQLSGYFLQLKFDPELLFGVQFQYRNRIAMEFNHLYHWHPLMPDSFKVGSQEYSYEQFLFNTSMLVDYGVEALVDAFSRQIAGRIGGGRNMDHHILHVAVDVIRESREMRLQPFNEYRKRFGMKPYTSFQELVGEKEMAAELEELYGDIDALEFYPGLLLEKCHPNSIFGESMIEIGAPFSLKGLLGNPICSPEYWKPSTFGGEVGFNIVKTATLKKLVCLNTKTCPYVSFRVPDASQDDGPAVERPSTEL

IC50 [1] [µM]	IC50 [2] [µM]	IC50 [3] [µM]	IC50 [4] [µM]	SMILES
0.23	0.48	15.3	> 100	CS(=O)(=O)c1ccc(C2=C(c3ccc(F)c(F)c3)C(=O)OC2)cc1
> 100	13.5	6.5	> 100	CC(C(=O)O)c1ccc(CC2CCCC2=O)cc1 (stereo not drawn) [LOXOPROFEN]
